A melting point compilation (Tetko et al.)

melting point [°C]	Compound
101 to 103	Nc1cc(F)ccc1NC(=O)c1ccccn1
53 to 55	Nc1ccc(OCC2CCCCC2)cc1
184 to 186	Cc1ccc(O)c(C(=O)N2CCC(C(=O)O)CC2)c1
172 to 174	O=C(O)c1cccn1Cc1ccccn1
107 to 109	O=C(O)CS(=O)(=O)Cc1cccs1
341 to 343	Cc1nc(=O)c2cnn(-c3ccc([N+](=O)[O-])cc3)c2[nH]1
102 to 104	O=C(O)CC1(CC(=O)c2ccc(Cl)s2)CCCCC1
211 to 213	NC(=S)Nc1ccc2c(c1)OCCO2
60 to 62	N#Cc1cc(C2CC2)ccn1
47 to 49	N#Cc1cc(Br)cs1
179 to 181	O=C(O)C1CC(=O)N(c2ccc3c(c2)CCC3)C1 (configuration not stated)
57 to 59	CNc1ccc(Br)nc1
264 to 266	O=C(O)c1cccc(NC(=O)C2CC2)c1
147 to 149	CCOC(=O)/C(C#N)=C\Nc1cc(Cl)ccc1F
211 to 213	N#Cc1ccc(N2N=C(c3ccccc3)CC2=O)cc1
71 to 75	Cc1cc(C=O)c(C)n1-c1ccc2c(c1)CCC2
197 to 199	Nc1nc2cc(Cl)ccc2s1
134 to 136	CC(NC(=O)CCl)c1ccc2c(c1)CCCC2 (configuration not stated)
204 to 206	NC(=S)Cn1nc2ccccn2c1=O
133 to 135	CC(=O)Nc1cccc(C#N)c1
147 to 149	CC1(C)NC(=O)N(CCOc2ccc(N)cc2)C1=O
239 to 241	N#Cc1c(Cl)cccc1Oc1cccc(C(=O)O)c1
68 to 70	CC(=O)CC(=O)N1CCOCC1
91 to 93	O=C(O)CN1C(=O)CCC1=O
144 to 146	Nc1cccc(N2CCCCC2=O)c1
128 to 130	COc1ccc(CNC(=O)C(C#N)=CN(C)C)cc1

melting point [°C]	Compound
213 to 215	O=C(Nc1ccccc1)c1ccc(Cl)nn1
203 to 205	Nc1ccc(-c2nnc[nH]2)cc1
209 to 211	Cc1nc(-c2ccc(F)c(F)c2)sc1C(=O)O
169 to 171	O=[N+]([O-])c1ccc(S)nc1
234 to 236	CN(C)c1ccnc(C(=O)O)c1
141 to 143	O=C(O)C(c1ccccc1)n1cccn1 (configuration not stated)
148 to 152	CC(C)(C)NC(=O)CN1CCN(CC(N)=S)CC1
75 to 77	COC(=O)C1(O)CCN(Cc2ccccc2)CC1
266 to 268	O=C(O)c1cccn2ccnc12
107 to 109	Nc1cccc(Oc2ccncc2)c1
106 to 110	O=C(O)CCNS(=O)(=O)c1ccc2c(c1)CCCC2
72 to 74	CN1CCN(c2cc(CN)ccn2)CC1
153 to 155	Nc1ccc(N2CCN(C(=O)C3CC3)CC2)cn1
211 to 213	O=C(Cc1ccc(O)cc1)NC1CCNCC1
97 to 99	N#Cc1cc(Cl)ccc1S(=O)(=O)Cl
127 to 129	N#Cc1ccccc1-c1ccc(CBr)cc1
153 to 155	NNC(=O)c1cccc(S(=O)(=O)N2CCCC2)c1
252 to 254	O=C(O)c1ccc(-n2cccc2)c(F)c1
199 to 201	NC(=O)c1n[nH]c2ccc(N)cc12
164 to 166	CC1=NN(c2cc(C)ccc2C)C(=O)C1
44 to 46	CN(C)Cc1ccc(-c2ccccc2C#N)cc1
99 to 101	N#CCN1CCN(c2ncccn2)CC1
177 to 179	NC(=O)c1ccc(-c2nc(CCl)cs2)cc1
33 to 35	CNC(C)(C#N)Cn1cc(Br)cn1 (configuration not stated)
100 to 102	OCc1nnnn1-c1ccccc1
170 to 172	N#CCNC(=O)c1ccc(Br)cc1

melting point [°C]	Compound
141 to 143	O=C1NCCNC1c1ccc(C(F)(F)F)cc1 (configuration not stated)
219 to 221	Cc1oc(C(=O)O)cc1S(=O)(=O)N1CCCC1
62 to 64	CC1C(C(F)(F)F)OC(=O)N1c1ncccc1N (configuration not stated)
147 to 149	NC(=S)C1CN(C(=O)OCc2ccccc2)CCO1 (configuration not stated)
114 to 116	Cc1ccc(N)cc1OCC1CCOCC1
131 to 133	Cc1cccc2c(Cl)ncnc12
68 to 70	COc1ccc(C=O)cc1OCC1CC1
261 to 263	CC(C)(C)OC(=O)Nc1cnc(C(=O)O)cn1
173 to 175	Cc1nn(-c2cncc3nnnn23)c(C)c1CC(=O)O
160 to 162	CN1CCN(c2ccc(C(=O)O)cc2[N+](=O)[O-])CC1
203 to 205	CC(C)C(=O)Nc1ccc(CNC(=O)n2ccnc2)cc1
181 to 183	O=C(O)c1c(Cl)nc2sccn12
71 to 73	Fc1ccc2c(Cl)ccnc2c1
58 to 60	CCc1cccc(CC(=O)O)c1
120 to 122	O=C1NC(=O)C2(CCOc3ccccc32)N1 (configuration not stated)
65 to 67	Cc1nnc(C2Cc3ccccc3CN2)o1 (configuration not stated)
146 to 148	CC1Oc2ccccc2N(CC(=O)O)C1=O (configuration not stated)
165 to 167	O=C(O)c1cc(OCc2ccccc2)ccc1O
143 to 145	NCc1cccc(NC(N)=O)c1
279 to 281	Cc1c(C#N)c(NC(=O)CCl)n(Cc2ccc(F)cc2)c1C
196 to 198	NS(=O)(=O)c1cnn(-c2ccccc2)c1
205 to 207	O=C1CCc2cc(S(=O)(=O)Cl)ccc2N1
107 to 109	CCc1nnnn1-c1ccccc1N
156 to 158	O=C(O)c1c(C(F)(F)F)nn(-c2ccccc2)c1C(F)(F)F
219 to 221	O=C(O)c1ccc(S)c(Cl)c1

The remaining lines, values behind:

Compound	melting point [°C]
O=C1NC2(CCNCC2)NC12CCCCC2	276 to 278
Oc1ccc(Nc2nnns2)cc1	159 to 161
CC(=O)CC(=O)Nc1cccc(C)c1	57 to 59
Cc1nnc(Br)s1	106 to 108
O=C1C(=O)N(Cc2ccccc2)c2ccccc21	92 to 94
Cc1nc(C)c(C(=O)O)o1	219 to 221
Cc1cc(Br)cc(C)c1C(=O)O	184 to 186
Cc1ccc(OCc2nc(C=O)cs2)cc1	86 to 88
CC(Cl)C(=O)NC1CCCCC1 (configuration not stated)	98 to 100
CC(=O)c1cc([N+](=O)[O-])ccc1N	144 to 146
O=C(O)c1c[nH]cc1-c1ccccc1	212 to 214
c1ccc2cc(CN3CCNCC3)ccc2c1	53 to 55
NC(=O)Nc1ccc(Cl)c(N)c1	176 to 178
CC(C)OCc1cc(C(=O)O)ccc1F	84 to 86
COc1ccc(N)cc1OCC(F)(F)F	154 to 156
Cc1ccc(S(=O)(=O)NC(C)(C)C)cc1C(=O)O	180 to 182
NC(=O)c1cc(N)ccc1F	137 to 139
C=CC(=O)Nc1ccc(OC)cc1[N+](=O)[O-]	124 to 126
CN(CC(=O)O)S(=O)(=O)c1ccc2c(c1)OCCO2	141 to 143
NC(=O)CN1CC(C(=O)O)CC1=O (configuration not stated)	169 to 171
CC(=O)NCc1ccc(-c2csc(N)n2)s1	221 to 223
CC(C)(C)OC(=O)NCC(=O)NN	79 to 81

Compound	melting point [°C]
Cc1nn(-c2ccc(Br)cc2)cc1C=O	111 to 113
COc1ccc(CCC(=O)NN)cc1	129 to 131
COc1ccc(S(=O)(=O)Nc2cccc(CN)c2)cc1	125 to 127
O=[N+]([O-])c1cc(I)ccc1Cl	71 to 73
O=C1C2C3C=CC(C3)C2C(=O)N1c1cccc(Br)c1 (configuration not stated)	192 to 194
O=C(O)c1cc(-c2ccc(Cl)cc2)nn1-c1ccccc1	214 to 216
Cc1ccc(-c2csc(NC(=O)CCl)n2)cc1C	179 to 181
CC(C)(C)OC(=O)NCc1cn[nH]c1	104 to 106
CC(C)(C)C(=O)Nc1ccccc1C(=O)O	157 to 159
Cc1c(C)c(C)c(S)c(C)c1C	62 to 64
Nc1ccc(-c2nc3cc(Br)ccc3s2)cc1	189 to 191
O=C(O)CNC(=O)c1ccc(Br)o1	91 to 93
Cc1ccc(OCCCC(=O)O)cc1C	90 to 92
Cc1ccc(S(=O)(=O)Nc2ccccc2C(=O)O)cc1	231 to 233
CN(Cc1ccccc1)c1nc2ccccc2[nH]1	206 to 208
Cc1ccc(C(C)(C)C(=O)O)cc1	76 to 78
CSc1nc(Cl)cc(CCl)n1	28 to 32
O=S(=O)(Cl)c1csc(-c2ccc(Cl)cc2)n1	93 to 95
O=C(O)CCNc1ccccc1[N+](=O)[O-]	144 to 146
CCN(CC)S(=O)(=O)c1ccc(OC)c(NC(=O)CCl)c1	100 to 102
Cc1sc(C(=O)O)cc1-c1ccc(F)cc1	156 to 158
Cc1csc(-c2ccc(N)cc2)n1	111 to 113

Compound	melting point [°C]
COC(=O)c1cc2ccccc2c(Cl)n1	110 to 112
COc1ccc(C=NO)cc1OCc1ccccc1	75 to 77
Cc1nn(C)c(C(F)F)c1C(=O)O	165 to 167
CC(C)[C@H](NC(=O)c1c(F)cccc1F)C(=O)O	172 to 174
CC(C(=O)O)S(C)(=O)=O (configuration not stated)	86 to 88
CCC(C)Nc1ccc(C(N)=O)cc1 (configuration not stated)	113 to 115
CS(=O)(=O)CCCI	59 to 61
O=C(O)c1ccc(Oc2ccc(Cl)cn2)cc1	215 to 217
O=C(O)CCCCc1ccc(I)cc1	109 to 111
O=C(NO)C12CC3CC(CC(C3)C1)C2	110 to 112
Cc1nn(CC(=O)OC(C)C)c(C)c1C=O	104 to 106
CCc1nc(N)sc1C(=O)O	154 to 156
CC1(C)CC(=O)c2ccc(O)cc2O1	168 to 170
CC(C)(C)OC(=O)Nc1cccc(CCl)c1	103 to 105
Cc1ccc(N(C(=O)CCl)C2C=CS(=O)(=O)C2)cc1C (configuration not stated)	136 to 138
O=C(c1cc(Cl)c[nH]1)C(Cl)(Cl)Cl	128 to 130
Cc1noc(-c2ccc([N+](=O)[O-])c(C)c2)n1	132 to 134
NNC(=O)c1ccc(F)cc1Cl	161 to 163
CC(Cl)C(=O)NCCc1ccc(S(N)(=O)=O)cc1 (configuration not stated)	159 to 161
CS(=O)(=O)c1ccc(NC(N)=O)cc1	224 to 226
O=[N+]([O-])c1cc(F)cc(S(=O)(=O)Cl)c1	40 to 42
